# Patent publication US20040039211A1, “Tetrapyrroles” (DUKE UNIVERSITY AND NATIONAL JEWISH MEDICAL AND RESEARCH …, priority 2000, published 2004)
# How the values were obtained:
# [1] = Hydrolysis / dissociation of the complex in methanol/aqueous or water solution; assay type: physicochemical
# Procedure: (§1) Uv/vis Spectroscopy. […] Also the effects of EDTA, H2O2, and the methanol/water ratio on the stability of the manganese(III) complex were examined. […] […] 79:699 (1960)). When needed the biliverdin and biliverdin dimethylester as well as their reduced forms bilirubin and bilirubin dimethylester were studied. […] In a week, at 25° C., only 14% of the complex dissociated. When the water content was increased to 43%, half the complex dissociated in a week.
# [2] = Stability in the presence of excess EDTA (uv/vis); assay type: physicochemical
# Procedure: as §1
# rat brain homogenates = assay: Lipid peroxidation of rat brain homogenates by iron/ascorbate (TBARS); assay type: biochemical; details: concentration that reduced lipid peroxidation by one-half
# Procedure: The ability of mimetics to inhibit lipid peroxidation can be assessed as described by Day et al, Free Rad. Biol. Med. 26:730 (1990). Iron and ascorbate can be used to initiate lipid peroxidation in tissue homogenates and the formation of thiobarbituric acid reactive species (T BARS) measured.
# Two metallotetrapyrroles were tested for antioxidant activity, in vitro. In particular, the compounds were assayed for their ability to dismutate superoxide in the indirect method that utilizes xanthine and xanthine oxidase to generate superoxide and cytochrome c reduction as indicator of superoxide flux. […] The compounds were also assayed for their ability to prevent lipid peroxidation of rat brain homogenates by iron and ascorbate. The mixture of iron and ascorbate generates reactive oxygen species that oxidize biological lipids and these oxidized lipids can be detected as species that react with thiobarbituric acid (TBARS). Both compounds could inhibit the formation of TBARS and this ability correlated with their superoxide dismutase (SOD) activity (Table 5).
# b) Lipid peroxidation was initiated in rat brain homogenates with iron/ascorbate and the IC50 is the concentration of compound that reduced lipid peroxidation by one-half.
# [3] = Cyclic voltammetry, metal-centered redox potential; assay type: physicochemical; details: 90/10 (v/v) methanol/aqueous solution, pH* 7.9
# Procedure: Manganese(III) Salen. The compound was prepared by the published procedure (Boucher, J. lnorg. Nucl. Chem. 36:531 (1974)). The uv/vis in water: ε235=3.70×10^4 cm^−1 M^−1, ε279=1.70×10^4 cm^−1 M^−1, ε397=4.60×10^3 cm^−M^−1. The elemental analysis: Anal. Calcd for Mn^IIIsalenCl, C16H14N2O2MnCl: C, 53.88; H, 3.96; N; 7.85. Found: C, 54.02; H, 4.06; N, 7.85. […] Based on the E1/2 of Mn^IIITM-2-PyP^5+, ferrocenemethanol and of K3Fe(CN)6 in water and methanol, the redox potential of Mn^III salen^+ in water was calculated to be E1/2=−0.13 V vs NHE.
# Electrochemistry of the Manganese(III) Biliverdin Dimethylester. Measurements were made using a CH Instruments model 600 voltammetric analyzer as described previously(Batinic-Haberle et al, Inorg. Chem. 38:4011 (1999)). A three-electrode system in a small volume (0.5-3.0 mL), with a 3 mm diameter glassy carbon button working electrode (Bioanalytical Systems), Ag/AgCl reference electrode (3 M NaCl, Bioanalytical Systems), and a Pt wire (0.5 mm) as auxiliary electrode, were used. The cyclic votammetry was performed on 0.5 mM (per manganese) methanol/aqueous (90/10, v/v) solutions of the compounds investigated. The ionic strength was kept at 0.10 M (NaCl), and 0.05 M tris buffer was used for pH^* adjustment. For calibration purposes, compounds of different hydrophilicities, […], (Kolthof et al, J. Phys. Chem. 39:945 (1935)) ferrocenemethanol and Mn^IIITM-2-PyP^5+ were studied in both aqueous and methanol/aqueous (90/10, v/v) solutions (I=0.10 M NaCl, 0.05 M tris buffer, pH^* 7.9). In all cases the measured E1/2 was 170 mV more positive in methanolic than in aqueous solution and this value was used to predict the redox potential in aqueous solution from measurement in methanol/aqueous solution.
# [4] = Reactivity towards nitric oxide (uv/vis); assay type: physicochemical; details: 14 μM, 90-fold excess NO, 90/10 methanol/PBS, 1 hour
substance,measurement,setting,value
Manganese(III) Biliverdin IX Dimethylester [{Mn^IIIBVDME}2],fraction of complex dissociated (hydrolysis),"[1]; 90/10 methanol/aqueous, pH* 7.9, one week, 25° C.",14%
same,fraction of complex dissociated (hydrolysis),"[1]; water content 43%, one week",half
same,stability in the presence of EDTA,"[2]; 1 μM, 900-fold excess EDTA (0.9 mM), 2-4 hours, 25° C., methanol/aqueous (90/10), 0.05 M tris, pH* 7.9",stable
same,stability in the presence of EDTA,"[2]; 20 μM, 900-fold excess of EDTA, pH 7.8",stable
same,IC50,rat brain homogenates,300 nM
same,"E1/2, V vs Ag/AgCl",[3]; Mn(III)/Mn(II) couple,−0.32 V vs Ag/AgCl
same,"E1/2, V vs Ag/AgCl",[3]; Mn(III)/Mn(IV) couple,+0.36 V vs Ag/AgCl
same,"E1/2, V vs Ag/AgCl","[3]; Mn(III)/Mn(IV) couple, listed as ½ {Mn^III/IVBVDME^0/−}2",−0.36 V vs Ag/AgCl
same,reactivity towards NO (change of spectrum),[4],No change in the spectrum
same,reactivity towards NO (change of spectrum),[4]; listed as compound of FIG. 2C,No reactivity towards NO has been detected
